Columns and labels:
LO2 cells [1] = assay: Hepatocyte protection rate in APAP-induced LO2 cells (MTT); type: cell-based, human; conditions: 16 mM APAP, 200, 400 and 600 μM
Description: Assessment of hepatocyte-protective effects: Cells in the logarithmic growth phase were seeded onto a 96-well plate at a density of 4000 cells per well, followed by incubation at 37 °C in an atmosphere containing 5% CO2. After 24 h of incubation, cells were treated with 16 mM APAP, followed by the addition of MONO, DIAM, and MAGN at three escalating concentrations (200, 400, and 600 μM for each compound). The cell survival rate was quantitatively evaluated using MTT method. The protective efficacy of the compounds was then calculated employing the formula outlined below.(1) Hepatocytes protection rate=AGlycyrrhizinate−AAPAP/Anormal−AAPAP×1

[2] = Pharmacokinetics after oral gavage in rats (plasma, HPLC); type: in vivo, Sprague Dawley rats; conditions: male, Sprague Dawley, rat, po, 20 mg/kg
Text: Nine male Sprague Dawley rats, each weighing approximately 250 g ± 25 g, were meticulously selected as the experimental subjects (sourced from Beijing SPF Biotechnology Co., Ltd., (Beijing, China) SPF grade, licensed under SCXK (Jing) 2019-0010). The experimental protocol was approved by the Institutional Animal Care and Use Committee of Hebei Medical University and conformed to the Guide for Care and Use of Laboratory Animals (approval NO. 2023040). Prior to and throughout the experimental period, the rats were provided with unrestricted access to standard rodent chow and water. The housing facilities for these animals adhered strictly to the standards outlined by the International Association for the Evaluation and Certification of Laboratory Animal Care, ensuring optimal conditions for the animals’ wellbeing. The experimental feeding environment was maintained at a temperature of 22–24 °C, with a relative humidity of 50 ± 5%, and a 12-h light/dark cycle to mimic natural diurnal rhythms. The rats were randomly allocated into three distinct groups, with an equal distribution of three rats per group. MONO, DIAM, and MAGN were administered orally at a dose of 20 mg/kg. The amount administered was calculated as the contents of glycyrrhizinate or magnesium isoglycyrrhizinate. Each compound was dissolved in 0.5% carboxymethylcellulose sodium (CMC-Na) solution and delivered immediately to rats via gastric gavage. Blood samples of 0.2 mL were obtained at various time points post-administration (0.5, 1, 2, 4, 8, 12, 24, and 48 h) and centrifuged at 1500× g for 10 min at 4 °C, allowing for the separation of plasma, which was collected and stored at −20 °C for subsequent analysis.
Fifty microliters (50 μL) of plasma was obtained and spiked with 10 μL of dipyridamole solution as an internal standard. Subsequently, 100 μL of acetonitrile was added to precipitate the proteins, followed by vortex mixing. The mixture was centrifuged at 6000× g for 10 min at 4 °C. The resulting precipitate was discarded, and the supernatant was evaporated to dryness under a nitrogen stream at 60 °C. The residual precipitate was redissolved in 200 μL of mobile phase, vortexed for 5 min, and sonicated for 30 s. Following this, the solution was centrifuged again at 6000× g for 10 min at 4 °C. Then, 10 μL of the supernatant was injected and the chromatogram was recorded for analysis.
HPLC was employed using the Agilent 1200 series system (Agilent Technologies, Wilmington, DE, USA) with Agilent Chemstation LC B.04.03 Software. The separation was on a Venusil MP C18(2) chromatographic column (150 × 4.6 mm, 5 μm, Agela Technologies, Tianjin, China) based on the United States Pharmacopeia with adjustments performed. Isocratic elution with a mixture of 40 volumes of acetonitrile and 60 volumes of water (containing 0.5% acetic acid) was used. The flow rate and temperature were 1.0 mL/min and 40 °C, respectively. A volume of 10 μL of the sample was injected under 254 nm for analyses and with three repetitions for each test (n = 3). All the pharmacokinetic data were calculated by Drug and Statistics (DAS) 2.0 software (Mathematical Pharmacology Professional Committee of China, Shanghai, China) and presented as mean ± SD. The main parameters such as the area under the curve (AUC), the maximum plasma concentration (Cmax), the time to Cmax (Tmax), and elimination half-life (t1/2) were tabulated.

LO2 cells [3] = assay: Cell viability of LO2 cells exposed to APAP (MTT), liver injury model; type: cell-based, human
Description: Cell culture and model construction: The experimental LO2 cells were provided by Shanghai Fuheng Biotechnology Co., Ltd. (Shanghai, China). Cells induced by APAP formed a cell model of liver injury. The cells were cultured in RPMI 1640 medium containing 100 units of penicillin, 100 μg/mL streptomycin, and 10% FBS at 37 °C and 5% CO2 atmosphere. The cells were changed daily and passaged when the contact reached 80%. Cells in the logarithmic growth phase were seeded onto a 96-well plate at a density of 4000 cells per well and subsequently incubated at 37 °C in an atmosphere containing 5% CO2. After 24 h of pre-incubation, cells were exposed to APAP at concentrations of 2, 4, 8, and 16 mM, followed by continued culture for the designated time periods. Subsequently, 20 μL of MTT solution (5 mg/mL, dissolved in PBS) was added to each well and incubated for an additional 4 h at 37 °C. To dissolve the formed formazan crystals, 200 μL of DMSO was added. The absorbance values were then measured at 490 nm using a microplate reader ([sequence] 200 PRO, Tecan, Männedorf, Switzerland). The cell survival rates at different APAP concentrations were calculated, and a cell survival rate below 60% was considered indicative of successful model construction. The specific formula employed for calculating the cell survival rate is provided below. […] Cell viability=AAPAP−ABlank/AControl−ABlank

CC1(C)[C@@H](O[C@H]2O[C@H](C(=O)O)[C@@H](O)[C@H](O)[C@H]2O[C@@H]2O[C@H](C(=O)O)[C@@H](O)[C@H](O)[C@H]2O)CC[C@]2(C)[C@H]3C(=O)C=C4[C@@H]5C[C@@](C)(C(=O)O)CC[C@]5(C)CC[C@@]4(C)[C@]3(C)CC[C@@H]12 [MONO, monoammonium glycyrrhizinate]
hepatocyte protection (therapeutic effect) (LO2 cells [1]): concentration-dependent therapeutic effects | half-life ([2]; n = 3): 649 ± 39.6 min | AUC(0-t) ([2]; n = 3, read-out: AUC0-t): 320 ± 78.6 µg·h/mL | Cmax ([2]; n = 3, read-out: Cmax): 15000 ± 3640 ng/mL | Tmax ([2]; n = 3, read-out: Tmax): 8 h

CC(=O)Nc1ccc(O)cc1 [APAP, acetaminophen]
cytotoxicity towards LO2 cells (LO2 cells [3]; APAP 2-16 mM): concentration-dependent cytotoxicity | cell survival rate (LO2 cells [3]; APAP concentrations exceeding 16 mM, 24 h of APAP exposure): below 60%

— publication PMC12029898, “Cellular Metabolomics Reveals Differences in the Scope of Liver Protection Between Ammonium-Based Glycyrrhizinate and Magnesium Isoglycyrrhizinate” (Metabolites, 2025)
